From ChEMBL document CHEMBL1141144, “Discovery and structure-activity relationship of 3-aryl-5-aryl-1,2,4-oxadiazoles as a new series of apoptosis inducers and potential anticancer agents” (J Med Chem, 2005)

Experiments:
Type in all cases: functional
NCI-H1299 = assay: Growth inhibitory activity against H1299 cells done for 48 h at 37 degree C with compound; details: Homo sapiens, NCI-H1299, 48 h
T47D = assay: Growth inhibitory activity aganist T47D cells done for 48 hr at 37 degree C with compound; details: Homo sapiens
DLD-1 = assay: Growth inhibitory activity against DLD-1 cells done for 48 h at 37 degree C with compound; details: Homo sapiens, DLD-1, 48 h
Mus musculus = species on record: Mus musculus; assay: Inhibition of tumor growth in mice with MX-1 tumor after treatment in combination with paclitaxel

| Structure (SMILES) | GI50 (NCI-H1299) [nM] | GI50 (T47D) [nM] | GI50 (DLD-1) [nM] | Inhibition (Mus musculus) [%] |
| --- | --- | --- | --- | --- |
| Clc1ccc(-c2noc(-c3occc3Br)n2)cc1 | > 10000 | 120 | 510 | – |
| FC(F)(F)c1ccc(-c2noc(-c3sccc3Cl)n2)nc1 | > 10000 | 350 | 930 | – |
| FC(F)(F)c1ccc(-c2noc(-c3occc3Br)n2)cc1 | > 10000 | 320 | 130 | – |
| Cc1ccc(-c2noc(-c3sccc3Cl)n2)cc1 | > 10000 | 2200 | 850 | – |
| FC(F)(F)c1ccc(-c2noc(-c3sccc3Cl)n2)cc1 | > 10000 | 220 | 770 | – |
| Clc1ccc(-c2noc(-c3sccc3Cl)n2)cc1 | > 10000 | 190 | 400 | – |
| FC(F)(F)c1ccc(-c2noc(-c3occc3Cl)n2)cc1 | > 10000 | 170 | 350 | – |
| Clc1ccc(-c2noc(-c3sccc3Br)n2)cc1 | > 10000 | 570 | 580 | – |
| COc1ccc(-c2noc(-c3sccc3Cl)n2)cc1 | > 10000 | 520 | 930 | – |
| Clc1ccc(-c2noc(-c3occc3Cl)n2)cc1 | > 10000 | 120 | 510 | 83 |
| Clc1ccc(-c2noc(-c3occc3Br)n2)nc1 | > 10000 | 380 | 430 | – |
| Clc1ccc(-c2noc(-c3sccc3Cl)n2)nc1 | > 10000 | 200 | 800 | – |
| Clc1ccc(-c2noc(-c3occc3Cl)n2)nc1 | > 10000 | 13000 | 600 | – |
